Source: US7786152B2, “Compound” (priority 2002, dated 2010)

Target: T1, 11 β-HSD type 2 (Rattus norvegicus, UniProt P50233)
T1 construct: Both the kidneys and livers were homogenised on ice in PBS-sucrose buffer; tissue Harlan Olac (rats); host or cells: Wistar rat kidney homogenate supernatant
T1 sequence (P50233 1-400): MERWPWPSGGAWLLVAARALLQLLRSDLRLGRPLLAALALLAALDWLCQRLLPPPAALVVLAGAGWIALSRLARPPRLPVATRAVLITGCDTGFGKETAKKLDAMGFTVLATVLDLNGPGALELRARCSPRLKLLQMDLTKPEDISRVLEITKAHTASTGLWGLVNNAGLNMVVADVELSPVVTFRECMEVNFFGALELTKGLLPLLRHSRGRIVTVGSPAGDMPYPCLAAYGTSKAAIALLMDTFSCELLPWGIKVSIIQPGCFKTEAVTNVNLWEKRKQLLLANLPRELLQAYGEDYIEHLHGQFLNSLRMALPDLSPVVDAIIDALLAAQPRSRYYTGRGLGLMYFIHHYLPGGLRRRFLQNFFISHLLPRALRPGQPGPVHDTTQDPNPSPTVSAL
Assay: 11 β-HSD type 2 inhibition, rat kidney homogenate, conversion F to E (radiometric TLC)
Format: biochemical
Conditions: read-out: % inhibition of 11β HSD2 @ 10 μM, typical sd ± 5%, means n=2
Experimental: Enzymes—Rat livers and rat kidneys were obtained from normal Wistar rats (Harlan Olac, Bicester, Oxon, UK). Both the kidneys and livers were homogenised on ice in PBS-sucrose buffer (1 g/10 ml) using an Ultra-Turrax. After the livers and kidneys were homogenised the homogenate was centrifuged for five minutes at 4000 rpm. The supernatant obtained was removed and stored in glass vials at −20° C. The amount of protein per μl of rat liver and kidney cytosol was determined using the Bradford method.
The same procedure was used for the 11 β-HSD type 2 assay, the conversion F to E, to determine the amount of rat kidney to be used and the incubation time. Except this time the substrate solution contained ^3H—F and unlabelled F and the recovery contained ^14C-E and unlabelled E and cortisone has a Rf value of 0.65 on the TLC-plate.
In these assays the influence of different inhibitors on the 11 β-HSD activity both in reductive (type 1) and oxidative (type 2) directions were assessed. In the reductive direction E is the substrate and F the product and visa versa in the case of oxidation. The method described here is for the oxidative direction.
The substrate solution contained about 50,000 cpm/ml ^3H—F in PBS-sucrose and 0.5 μM F. 1 ml of the substrate solution was added to each tube, the inhibitors were also added, at a 10 μM concentration, to each tube except to the “control” and “blank” tubes. 150 μL was added to all tubes except to the blanks, this was done to correct for the amount of ^3H—F spontaneously formed. The tubes were incubated for 60 minutes in a mechanically shaken water bath at 37° C. The amount of kidney liver homogenate and incubation time used resulted from the enzyme- and time-dependency assay. After incubation 50 μL of recovery was added to correct for the losses made in the next steps, containing 5000 cpm/50 μL of ^14C-E and 50 μg/50 μL of unlabelled E (to visualise the spot on the TLC-plate). The aqueous mixture was then extracted with 4 ml of ether (2×30 sec cycle, vortex mix). After freezing the aqueous phase, the ether (upper) layer was decanted into smaller tubes and evaporated at 45° C. until completely dry. The residue was then re-dissolved in 6 drops of ether and transferred to a TLC-plate. The TLC-plate was developed in chloroform:methanol (9:1 v/v) solvent system, the TLC-plate ran for about 90 minutes until the solvent front had moved about 18 cm. The position of the product E was visualised under UV-light and cut out from the TLC-plate and put into scintillation vials. Radioactivity was eluted over 5 minutes with 0.5 ml methanol. 0.5 ml of PBS-sucrose and 10 ml of Ecoscint were then added and vortex mixed before counting in the scintillation counter. Before counting the samples, two total activity vials were prepared. These contained 0.5 ml of the substrate solution, 50 μL of the recovery, 0.5 ml of methanol and 10 ml of Ecoscint. These two total activity vials were needed to determine the amount of ^14C-E and ^3H—F added in the beginning to make the calculations.
To look at the percentage of inhibition four different concentrations, 1, 5, 10 and 20 μM, were used. The method for both the rat liver, type 1 the reductive, and rat kidney, type 2 the oxidative, stay the same throughout the entire experiment.
In this experiment the amount of rat liver homogenate and rat kidney homogenate added to each tube and the incubation time was determined. […] After drawing the graphs the optimal amount of rat liver cytosol and rat kidney cytosol and both their incubation times were selected. One important rule when selecting both variables, to select an amount of rat liver and rat kidney and incubation time on a linear part of the graph. This is done to avoid fluctuations in enzyme activity. The amount of rat liver cytosol selected was 25 μL and 90 minutes of incubation time, the amount of rat kidney cytosol selected was 150 μL and 60 minutes of incubation time. […]

Row | SMILES | inhibition at 10 µM [%]
1 | Cc1nc2cc(NS(=O)(=O)c3ccc(Cl)cc3Cl)ccc2s1 [compound 412] | 3
2 | Cc1nc2cc(NS(=O)(=O)c3cccc(Cl)c3C)ccc2s1 [compound 413] | 0.2
3 | CCCc1ccc(S(=O)(=O)Nc2ccc3sc(C)nc3c2)cc1 [compound 421] | 0.9
4 | COc1ccc(S(=O)(=O)Nc2ccc3sc(C)nc3c2)cc1 [compound 424] | 0.7
5 | Cc1nc2cc(NS(=O)(=O)c3c(C)cccc3Cl)ccc2s1 [compound 425] | 0
6 | Cc1nc2cc(N(C)S(=O)(=O)c3cccc(Cl)c3C)ccc2s1 [compound 469] | 29
7 | CCN(c1ccc2sc(C)nc2c1)S(=O)(=O)c1cccc(Cl)c1C [compound 470] | 30
8 | Cc1nc2cc(NS(=O)(=O)c3ccc(Br)cc3)ccc2s1 [compound 519] | 8
9 | Cc1nc2cc(NS(=O)(=O)c3ccc(-c4ccccc4)cc3)ccc2s1 [compound 521] | 5
10 | Cc1nc2cc(NS(=O)(=O)c3c(Cl)cc(Cl)cc3Cl)ccc2s1 [compound 522] | 6
11 | Cc1nc2cc(NS(=O)(=O)c3ccc(Br)cc3C)ccc2s1 [compound 523] | 8
12 | Cc1nc2cc(NS(=O)(=O)c3cccc4cccnc34)ccc2s1 [compound 552] | 24
13 | Cc1nc2cc(NS(=O)(=O)c3cccc4ccccc34)ccc2s1 [compound 553] | 18
14 | Cc1nc2cc(NS(=O)(=O)c3cccc4c(N(C)C)cccc34)ccc2s1 [compound 554] | 43
15 | Cc1nc2cc(NS(=O)(=O)c3cc(Cl)ccc3Cl)ccc2s1 [compound 580] | 1.4
16 | Cc1nc2cc(NS(=O)(=O)c3ccc4c(c3)CN(C(=O)C(F)(F)F)CC4)ccc2s1 [compound 581] | 32
17 | COc1ccc(Cl)cc1S(=O)(=O)Nc1ccc2sc(C)nc2c1 [compound 582] | 0.7
18 | Cc1nc2cc(NS(=O)(=O)c3ccccc3C#N)ccc2s1 [compound 583] | 0.4
19 | COc1cc(C)ccc1S(=O)(=O)Nc1ccc2sc(C)nc2c1 [compound 584] | 10
20 | Cc1nc2cc(NS(=O)(=O)c3ccc(Oc4ccccc4)cc3)ccc2s1 [compound 585] | 1.6
21 | CC(=O)c1ccccc1S(=O)(=O)Nc1ccc2sc(C)nc2c1 [compound 701] | 36
22 | Cc1nc2cc(NS(=O)(=O)c3c(C(C)C)cc(C(C)C)cc3C(C)C)ccc2s1 [compound 703] | 4
23 | Cc1nc2cc(NS(=O)(=O)c3ccc(C(C)C)cc3)ccc2s1 [compound 704] | 4
24 | COC(=O)c1ccccc1S(=O)(=O)Nc1ccc2sc(C)nc2c1 [compound 705] | 6
25 | COc1c(C)c(C)c(S(=O)(=O)Nc2ccc3sc(C)nc3c2)c(C)c1C [compound 708] | 11
26 | Cc1nc2cc(NS(=O)(=O)c3ccc(C(C)(C)C)cc3)ccc2s1 [compound 709] | 13
27 | Cc1nc2cc(NS(=O)(=O)c3c(C)c(C)c(C)c(C)c3C)ccc2s1 [compound 710] | 10
28 | CCSc1nc2ccc(NS(=O)(=O)c3cccc(Cl)c3C)cc2s1 [compound 751] | 5
